“Also recorded” adds a separate entry of the source. Non-standard residues stand in square brackets, D forms with d. No end group written: not given here. Nle = CCCC[C@H](N)C(=O)O
Experiments:
[1] = Susceptibility to oxidation / loss of biological activity (stability); format: physicochemical
[2] = system: monolayer rat pituitary cell cultures; assay: GH release from monolayer rat pituitary cell cultures; format: cell-based
Experimental: In vitro analysis of the synthetic peptide: The synthetic Nle^27 -hpGRF was added to the medium of monolayer rat pituitary cell cultures and incubated. After incubation, the media was assayed for GH released from the pituitary cells and compared to control cultures (medium alone). The amount of GH released in response to varying doses of Nle^27 -hpGRF was compared to the GH release induced by the same concentrations of the synthetic hpGRF.

[3] = storage or in a living system; believed to be caused at least partly by oxidation of methionine 27; cited from earlier work

| Substance | resistance to oxidation ([1]; norleucine at position 27 instead of methionine) | GH-releasing activity (GH released into medium) compared with hpGRF ([2]; varying doses, same concentrations as synthetic hpGRF, tested at the same time under identical conditions) | loss of biological activity through methionine oxidation [1] | loss of biological activity during storage or when introduced into a living system [3] | GH-releasing activity with reducing agent added to the test medium ([2]; L-ascorbic acid added to test medium, compared to medium without reducing agent) |
| --- | --- | --- | --- | --- | --- |
| YADAIFTNSYRKVLGQLSARKLLQDI[Nle]SRQQGQSNQERGARARL-NH2 [Nle^27 -hpGRF] | resistant to oxidation | significantly greater biological activity than synthetic hpGRF; also recorded: greater growth hormone-releasing activity than the natural compound; also recorded: greater GH-releasing activity than original hpGRF |  |  |  |
| corticotropin-releasing factor |  |  | Loss of biologic activity |  |  |
| hpGRF: human pancreatic tumor growth hormone-releasing factor, 44 amino acid residues, methionine at position 27 |  |  | drastic loss of biological activity | drastic loss of biological activity | enhance the GH-releasing activity |
